Assay results reported in US20150315218A1, “SALTS OF PRODRUGS OF PIPERAZINE AND SUBSTITUTED PIPERIDINE ANTIVIRAL AGENTS” (Bristol-Myers Squibb Company, priority 2004, published 2015).
“Also recorded” adds a separate entry of the source. Structures can show the parent of a compound that is named as a salt.

Experiments:
[1] = Single-dose toxicokinetic and tolerability study of prodrugs in dogs; format: in vivo, dog; conditions: for clinical signs, body weight and food consumption / emesis: oral prodrug
Outline: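 Female dogs (two/group) received prodrug Iab orally once daily at 24, 90 or 240 mg/kg (free acid) as aqueous solution or dry-filled capsules, one-week washouts between doses. Ibb and Icb given to one dog/sex/group as capsules, then aqueous 25 mg/kg or capsules 46 or 125 mg/kg BID. Clinical signs, body weight, food intake and plasma toxicokinetics monitored.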

[2] = Single-dose oral toxicokinetic study of prodrugs in rats; format: in vivo, rat; conditions: for half-life / AUC / Cmax: rat, plasma; for C24 h: mean
Outline: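 Plasma levels of prodrug and parent IVa were measured per rat over one day after one oral gavage dose, given as a water solution to groups of three males. Free-acid doses: Icb 5/25/200, Ibb 19/64/236, Iab 16/72/267 mg/kg; for Iab these equal 13/57/211 mg/kg of IVa.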

[3] = IV and PO pharmacokinetic studies of prodrug salts (Iab, Ibb, Icb) in the rat, with historical parent data; format: in vivo, Sprague-Dawley rats; conditions: for half-life: after IV prodrug, read-out: t1/2 (hr), IV (converted); for clearance / Vd: prodrug after IV administration; for clearance: read-out: CLtot (mL/min/kg), IV; for Vd: read-out: Vdss (L/kg), IV
Outline: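 Male Sprague-Dawley rats (300-350 g, jugular-cannulated; fasted overnight for PO) received mono-lysine prodrug salts in distilled water: IV bolus over 0.5 min at 1.4 mg/kg free acid, PO gavage at 7.9 mg/kg (Iab) or 6.9 mg/kg (Icb) free acid, n=3. Plasma parameters by non-compartmental analysis; oral bioavailability from dose-normalized AUC ratio.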

[4] = Stability of prodrug in fresh EDTA blood (human); conditions: for Iab / IVa Formed: Human EDTA blood; for Ibb: Ibb in fresh human EDTA blood, 37° C., n = 2
Procedure: The stability of Iab was studied in fresh blood and serum from rat, dog, monkey and human (n=2). The blood was collected in vacutainers containing K2EDTA (Becton Dickinson, Franklin Lakes, N.J.). The serum was collected in vacutainers containing no anticoagulant. Iab was incubated at a starting concentration of approximately 10 μM for 60-90 min at 37° C. Serial samples were taken at the pre-determined times. Aliquots of blood samples (200 μL) were first mixed with 100 μL of water followed by 400 μL of acetonitrile. The serum samples (50 μL) were added into microtainers containing K2EDTA (Becton Dickinson, Franklin Lakes, N.J.) followed by the addition of 100 μL of acetonitrile. The supernatant was analyzed for both Iab and IVa by LC/MS/MS. The stability of Ibb was studied in fresh blood and serum from rat, dog, monkey and human (n=2). The blood was collected in vacutainers containing K2EDTA (Becton Dickinson, Franklin Lakes, N.J.). The serum was collected in vacutainers containing no anticoagulant. Ibb was incubated at a starting concentration of approximately 15 μM for 90 min at 37° C. Serial samples were taken at the pre-determined times. Aliquots of blood samples (200 μL) were first mixed with 100 μL of water followed by 400 μL of acetonitrile. The serum samples (50 μL) were added into microtainers containing K2EDTA (Becton Dickinson, Franklin Lakes, N.J.) followed by the addition of 100 μL of acetonitrile. […] The stability of Icb was studied in fresh blood and serum from rat, dog, monkey and human (n=2). The blood was collected in vacutainers containing K2EDTA (Becton Dickinson, Franklin Lakes, N.J.). The serum was collected in vacutainers containing no anticoagulant. Icb was incubated at a starting concentration of approximately 10 μM for 90 min at 37° C. Serial samples were taken at the pre-determined times. Aliquots of blood samples (200 μL) were first mixed with 100 μL of water followed by 400 μL of acetonitrile. The serum samples (50 μL) were added into microtainers containing K2EDTA (Becton Dickinson, Franklin Lakes, N.J.) followed by the addition of 100 μL of acetonitrile.

[5] = male, Sprague-Dawley, plasma, analyte = label

COc1cnc(OC)c2c1c(C(=O)C(=O)N1CCN(C(=O)c3ccccc3)CC1)cn2COP(=O)(O)O [Iab, {3-[(4-benzoylpiperazin-1-yl)(oxo)acetyl]-4,7-dimethoxy-1H-pyrrolo[2,3-c]pyridin-1-yl}methyl dihydrogen phosphate, L-lysine salt (1:1)]
percentage of estimated total dose lost in vomit ([1]; Dog #1201 (90 mg/kg Iab)): < 1% | percentage of estimated total dose lost in vomit ([1]; Dog #2201 (240 mg/kg Iab)): ≈ 90% | percentage of estimated total dose lost in vomit ([1]; Dog #2202 (240 mg/kg Iab)): ≈ 9% | clinical signs, body weight and food consumption ([1]; dogs): Other than emesis, there were no clinical signs observed, and there no effects on body weight and food consumption | emesis ([1]; dogs): Emesis was observed at about 30 minutes after dosing in both dogs given 90 mg/kg; also recorded: Emesis was observed in Dogs #1201, #2201, and #2202 about 1 hour after dosing | concentration at 1 h ([1]; female, dog, plasma, oral, dogs, 1 hour post dose, Iab 90-240 mg/kg phase, read-out: prodrug detected in plasma): 5 to 49 nM | concentration at 2 h ([1]; female, dog, plasma, oral, dogs, 2 hours post dose, Iab 90-240 mg/kg phase, read-out: prodrug detected in plasma): 5 to 6 nM | prodrug in the plasma samples ([1]; initial phase, Iab 24 or 90 mg/kg): not detected | half-life ([2]; CD, male rats, Iab 16 mg/kg PO, analyte = label, read-out: T½ (converted)): 38.4 min | half-life ([2]; CD, male rats, Iab 72 mg/kg PO, analyte = label, read-out: T½ (converted)): 22.2 min | AUC ([2]; CD, male rats, Iab 267 mg/kg PO, AUC from zero to time of last quantifiable sample, read-out: AUC): 0.057 µM·h | half-life ([2]; CD, male rats, Iab 267 mg/kg PO, analyte = label, read-out: T½ (converted)): 2.7 min | Cmax ([2]; CD, male rats, single oral dose Iab 16 mg/kg (13 mg/kg IVa molar equiv.), water, analyte = label): 68 nM | Cmax ([2]; CD, male rats, single oral dose Iab 72 mg/kg (57 IVa equiv.), analyte = label): 95 nM | Cmax ([2]; CD, male rats, single oral dose Iab 267 mg/kg (211 IVa equiv.), analyte = label): 110 nM | C24 h (μM) ([2]; male rats, Iab 16 mg/kg PO, analyte = label): <LLQ^1 | C24 h (μM) ([2]; male rats, Iab 72 mg/kg PO, analyte = label): <LLQ | C24 h (μM) ([2]; male rats, Iab 267 mg/kg PO, analyte = label): <LLQ | AUC ([2]; male, CD, po, 16 mg/kg, read-out: AUC): 0.02 µM·h | AUC ([2]; male, CD, po, 72 mg/kg, read-out: AUC): 0.049 µM·h | plasma AUC of the prodrug relative to that of the parent ([2]; rats, single oral dose of Iab): ≤ 0.03% | AUC ([3]; male, Sprague-Dawley, plasma, after IV prodrug (~1 mg/kg parent equivalent), analyte = label, read-out: AUCtot (μM·hr), IV): 3.3 ± 1 µM·h | half-life [3, 5]: 0.16 h | clearance ([3]; male, Sprague-Dawley, plasma): 14 mL/min/kg | Vd ([3]; male, Sprague-Dawley, plasma): 0.12 L/kg | Iab / IVa Formed ([4]; 0 min): 11 µM | Iab / IVa Formed ([4]; 15 min): 11 µM | Iab / IVa Formed ([4]; 30 min): 7.1 µM | Iab / IVa Formed ([4]; 45 min): 9.8 µM | Iab / IVa Formed ([4]; 60 min): 9.8 µM

O=C(C(=O)N1CCN(C(=O)c2ccccc2)CC1)c1cn(COP(=O)(O)O)c2c(-n3ccnn3)ncc(F)c12 [Ibb, [3-[(4-benzoylpiperazin-1-yl)(oxo)acetyl]-4-fluoro-7-(1H-1,2,3-triazol-1-yl)-1H-pyrrolo[2,3-c]pyridin-1-yl]methyl dihydrogen phosphate, L-lysine salt (1:1)]
clinical signs, body weight and food consumption ([1]; dogs): Other than emesis, there were no clinical signs observed, and there were no effects on body weight and food consumption | emesis ([1]; dogs): emesis (white, streaked with red that contained capsule remnants) was observed at about 0.5-1.25 hours after dosing in all dogs given ≧92 mg/kg QD; also recorded: emesis (white or brown) was observed within 2 hours after dosing in all dogs given ≧46 mg/kg BID | C24 h ([2]; male rats, single oral dose Ibb 19 mg/kg (IVb molar equiv. 15 mg/kg)): <LLQ | C24 h ([2]; male rats, single oral dose Ibb 64 mg/kg (IVb molar equiv. 51 mg/kg)): <LLQ | C24 h ([2]; male rats, single oral dose Ibb 236 mg/kg (IVb molar equiv. 190 mg/kg)): <LLQ | Cmax ([2]; male, Sprague Dawley, po, 19 mg/kg): 27 nM | AUC ([2]; male, Sprague Dawley, po, 19 mg/kg, read-out: AUC from zero to last time point): 0.03 µM·h | half-life ([2]; male, Sprague Dawley, po, 19 mg/kg, read-out: T1/2 (converted)): 78 min | Cmax ([2]; male, Sprague Dawley, po, 64 mg/kg): 140 nM | AUC ([2]; male, Sprague Dawley, po, 64 mg/kg, read-out: AUC from zero to last time point): 0.18 µM·h | half-life ([2]; male, Sprague Dawley, po, 64 mg/kg, read-out: T1/2 (converted)): 276 min | Cmax ([2]; male, Sprague Dawley, po, 236 mg/kg): 250 nM | AUC ([2]; male, Sprague Dawley, po, 236 mg/kg, read-out: AUC from zero to last time point): 0.49 µM·h | half-life ([2]; male, Sprague Dawley, po, 236 mg/kg, read-out: T1/2 (converted)): 216 min | prodrug detected in plasma after oral administration ([3]; LLQ = 5 nM): < 10 nM | half-life [3, 5]: 0.18 h | Cmax ([3]; male, Sprague-Dawley, plasma, po, 6.6 mg/kg, read-out: Cmax): 8 ± 3 nM | Tmax ([3]; male, Sprague-Dawley, plasma, po, 6.6 mg/kg, read-out: Tmax): 15 min | clearance ([3]; male, Sprague-Dawley, plasma): 19 mL/min/kg | Vd ([3]; male, Sprague-Dawley, plasma): 0.1 L/kg | Ibb ([4]; 0 min): 16 µM | Ibb ([4]; 15 min): 15 µM | Ibb ([4]; 30 min): 16 µM | Ibb ([4]; 45 min): 16 µM | Ibb ([4]; 60 min): 16 µM | Ibb ([4]; 90 min): 18 µM | conversion of prodrug to parent in blood containing EDTA ([4]; human blood, 37°C, 60 min (Iab) or 90 min (Ibb, Icb)): < 2%
